Laboratory results as given in ChEMBL document CHEMBL3525952, “A Baeyer-Villiger oxidation specifically catalyzed by human flavin-containing monooxygenase 5” (Drug Metab Dispos, 2011).

Assays:
[1] = target: T1, Flavin-containing monooxygenase 3 (Homo sapiens, UniProt P31513); assay: Drug metabolism assessed as human recombinant FMO3-mediated ER-879123 formation at 10 uM after 60 mins by LC-MS/MS method in presence of NADPH; assay type: ADME; conditions: recombinant enzyme, 1 h
T1 sequence (P31513 whole entry): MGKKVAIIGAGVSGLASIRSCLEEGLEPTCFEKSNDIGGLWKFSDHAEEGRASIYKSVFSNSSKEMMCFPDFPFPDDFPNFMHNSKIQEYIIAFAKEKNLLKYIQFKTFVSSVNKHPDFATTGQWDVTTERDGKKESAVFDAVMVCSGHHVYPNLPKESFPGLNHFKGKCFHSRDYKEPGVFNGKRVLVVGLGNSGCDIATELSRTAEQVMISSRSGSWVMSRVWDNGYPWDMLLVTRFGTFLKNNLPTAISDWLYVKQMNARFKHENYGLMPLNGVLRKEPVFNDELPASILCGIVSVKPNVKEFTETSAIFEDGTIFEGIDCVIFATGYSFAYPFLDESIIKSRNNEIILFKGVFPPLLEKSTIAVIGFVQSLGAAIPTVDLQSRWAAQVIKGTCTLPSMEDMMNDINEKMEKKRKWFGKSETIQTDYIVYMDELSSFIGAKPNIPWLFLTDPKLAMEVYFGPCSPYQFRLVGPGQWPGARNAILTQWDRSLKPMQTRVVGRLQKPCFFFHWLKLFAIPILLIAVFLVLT

[2] = target: T2, Flavin-containing monooxygenase 5 (Homo sapiens, UniProt P49326); assay: Drug metabolism assessed as human recombinant FMO5-mediated ER-879123 formation at 10 uM after 60 mins by LC-MS/MS method in presence of NADPH; assay type: ADME; conditions: recombinant enzyme, 1 h
T2 sequence (P49326 whole entry): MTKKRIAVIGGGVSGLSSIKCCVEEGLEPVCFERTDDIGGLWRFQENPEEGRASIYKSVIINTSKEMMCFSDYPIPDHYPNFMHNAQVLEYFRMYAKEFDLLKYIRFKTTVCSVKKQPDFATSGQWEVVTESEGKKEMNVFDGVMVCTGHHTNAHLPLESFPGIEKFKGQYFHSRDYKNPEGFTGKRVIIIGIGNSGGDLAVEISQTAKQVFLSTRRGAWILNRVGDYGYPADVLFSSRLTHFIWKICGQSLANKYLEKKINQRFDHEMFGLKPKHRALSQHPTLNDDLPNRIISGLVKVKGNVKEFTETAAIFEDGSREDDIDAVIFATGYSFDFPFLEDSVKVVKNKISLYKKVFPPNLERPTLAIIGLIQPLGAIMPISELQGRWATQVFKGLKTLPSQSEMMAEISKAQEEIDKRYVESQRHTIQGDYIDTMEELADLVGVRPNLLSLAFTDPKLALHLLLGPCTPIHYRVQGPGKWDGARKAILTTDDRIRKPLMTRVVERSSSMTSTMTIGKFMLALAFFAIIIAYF

[3] = target: T3, Flavin-containing monooxygenase 1 (Homo sapiens, UniProt Q01740); assay: Drug metabolism assessed as human recombinant FMO1-mediated ER-879123 formation at 10 uM after 60 mins by LC-MS/MS method in presence of NADPH; assay type: ADME; conditions: recombinant enzyme, 1 h
T3 sequence (Q01740 whole entry): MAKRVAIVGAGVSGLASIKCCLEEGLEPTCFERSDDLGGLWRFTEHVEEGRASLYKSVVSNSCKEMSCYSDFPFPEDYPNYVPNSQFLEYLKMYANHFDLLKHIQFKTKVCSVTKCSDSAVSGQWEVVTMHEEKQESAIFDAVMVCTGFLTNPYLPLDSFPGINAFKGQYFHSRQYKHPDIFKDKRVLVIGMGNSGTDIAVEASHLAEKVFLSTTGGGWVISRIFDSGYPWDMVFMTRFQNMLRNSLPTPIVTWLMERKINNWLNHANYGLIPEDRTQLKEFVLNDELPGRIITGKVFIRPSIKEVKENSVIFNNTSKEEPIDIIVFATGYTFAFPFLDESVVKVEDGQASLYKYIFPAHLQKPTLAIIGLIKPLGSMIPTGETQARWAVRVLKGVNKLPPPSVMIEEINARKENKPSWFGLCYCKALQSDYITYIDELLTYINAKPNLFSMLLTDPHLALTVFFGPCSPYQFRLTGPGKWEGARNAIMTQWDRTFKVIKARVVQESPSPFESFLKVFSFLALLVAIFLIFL

Liver microsome [4] = assay: Drug metabolism in dog liver microsomes assessed as ER-879123 formation at 10 uM after 60 mins in presence of NADH and FMO1 and FMO3 substrate/inhibitor methimazole by LC-MS/MS method; assay type: ADME, Canis lupus familiaris; conditions: 1 h
Liver microsome [5] = assay: Drug metabolism in 50 degC treated dog liver microsomes assessed as ER-879123 formation at 10 uM after 60 mins in absence of NAD+ by LC-MS/MS method; assay type: ADME, Canis lupus familiaris; conditions: 1 h
Liver microsome [6] = assay: Drug metabolism in dog liver microsomes assessed as ER-879123 formation at 10 uM after 60 mins in presence of NADH by LC-MS/MS method; assay type: ADME, Canis lupus familiaris; conditions: 1 h
[7] = target: T1, Flavin-containing monooxygenase 3; assay: Drug metabolism assessed as human recombinant FMO3-mediated ER-879123 formation in presence NADH at 10 uM after 60 mins by LC-MS/MS method; assay type: ADME; conditions: recombinant enzyme, 1 h
Liver microsome [8] = assay: Drug metabolism in human liver microsomes assessed as ER-879123 formation at 10 uM after 60 mins in presence of NADH by LC-MS/MS method; assay type: ADME; conditions: 1 h
Liver microsome [9] = assay: Drug metabolism in human liver microsomes assessed as ER-879123 formation at 10 uM after 60 mins in presence of NADH and FMO1 and FMO3 substrate/inhibitor methimazole by LC-MS/MS method; assay type: ADME; conditions: 1 h
[10] = target: T3, Flavin-containing monooxygenase 1; assay: Drug metabolism assessed as human recombinant FMO1-mediated ER-879123 formation in presence NADH at 10 uM after 60 mins by LC-MS/MS method; assay type: ADME; conditions: recombinant enzyme, 1 h
Liver microsome [11] = assay: Drug metabolism in human liver microsomes assessed as ER-879123 formation at 10 uM after 60 mins in presence of NADH and carboxylesterase inhibitor BNPP by LC-MS/MS method; assay type: ADME; conditions: 1 h
Liver microsome [12] = assay: Drug metabolism in 50 degC treated human liver microsomes assessed as ER-879123 formation at 10 uM after 60 mins in absence of NAD+ by LC-MS/MS method; assay type: ADME; conditions: 1 h
Liver microsome [13] = assay: Drug metabolism in dog liver microsomes assessed as ER-879123 formation at 10 uM after 60 mins in presence of NADH and carboxylesterase inhibitor BNPP by LC-MS/MS method; assay type: ADME, Canis lupus familiaris; conditions: 1 h
[14] = target: T2, Flavin-containing monooxygenase 5; assay: Drug metabolism assessed as human recombinant FMO5-mediated ER-879123 formation in presence NADH at 10 uM after 60 mins by LC-MS/MS method; assay type: ADME; conditions: recombinant enzyme, 1 h

Drug metabolism [1]: metabolite_not_detected
Drug metabolism [2]: metabolite_detected
Drug metabolism [3]: metabolite_not_detected
Drug metabolism (Liver microsome [4]): metabolite_detected
Drug metabolism (Liver microsome [5]): metabolite_not_detected
Drug metabolism (Liver microsome [6]): metabolite_detected
Drug metabolism [7]: metabolite_not_detected
Drug metabolism (Liver microsome [8]): metabolite_detected
Drug metabolism (Liver microsome [9]): metabolite_detected
Drug metabolism [10]: metabolite_not_detected
Drug metabolism (Liver microsome [11]): metabolite_not_detected
Drug metabolism (Liver microsome [12]): metabolite_not_detected
Drug metabolism (Liver microsome [13]): metabolite_not_detected
Drug metabolism [14]: metabolite_detected
SMILES: O=C1CCN(Cc2ccc3c(c2)-c2n[nH]c(=O)c4cccc(c24)O3)CC1
